The record followed here is patent US20240058340A1, “COMPOSITIONS AND METHODS FOR TREATING CANCER” (The Regents of the University of California, priority 2020, published 2024).

The test system of data set [1] is PC-9 (EGFR exon 19 deletion). As to the kind of experiment: Cellular IC50, Cell Titer Glo, PC-9 cell line. As to conditions: Homo sapiens, PC-9 cells, 72 hours. The format is cell-based. As to the method: (§1) The PC-9 cell line was purchased from Sigma, and the HCC827 cell line was purchased from ATCC. Each cell line was maintained at ≤passage 10 at 37° C. in a humidified incubator with 5% CO2. Cells were plated in 96-well optical bottom plates (Corning #3903; Corning, NY) at a cell density of 5,000 cells/well, allowed to adhere for minimally 16 hours, and subsequently treated with the test compounds using an 11-point serial dilution (1:3) in duplicate using an HP D300 digital 4 dispenser (Tecan, Morrisville, NC). 72 hours after addition of the test compounds, Cell Titer Glo reagent (Promega, Madison, WI) was added to the plate according to manufacturer's protocol and luminescence measured using a Spectramax M5 (Molecular Devices, San Jose, CA). IC50s were calculated using the 4-parameter variable slope curve fit using the equation below where, Y and X are variables plotted, Top and Bottom are plateaus in the units of the Y axis, LogIC50 is the Log transformation of the IC50 value and HillSlope is the Hill Slope for the curve and describes curve steepness (GraphPad Prism, version 6.07, GraphPad Software, Inc.). Y=Bottom+(Top−Bottom)/(1+10((LogIC50−X)*HillSlope))).
On the technique in general: ATP-based viability assays read luminescence as a measure of living cells.

The subject of data set [2] is HCC827 (EGFR exon 19 deletion). As to the kind of experiment: Cellular IC50, Cell Titer Glo, HCC827 cell line. The format is cell-based. As to conditions: Homo sapiens, HCC827 cells, 72 hours. As to the method:
as §1

The nature of data set [3]: Brain penetration in non-tumor bearing mice. The format is in vivo. As to conditions: for Brain Penetration (% of plasma): brain to plasma percentage; for Kpuu (Avg): unbound ratio of drug in brain to plasma. The text has this: Disclosed in table 5 Brain to plasma percentages and unbound ratios of drugs in brain to plasma of indicated drugs in non-tumor bearing mice

Consider `CN1CCC2CN(C[C@H]3COc4cc5ncnc(Nc6cccc(Br)c6F)c5cc4O3)CC21` (stereo partly shown), for which the IC50 (usually the concentration at which inhibition is half-maximal) was found to be 12.9 nM in data set [1] and 5.9 nM in data set [2].
The like results for `CN1CC2CN(C[C@H]3COc4cc5ncnc(Nc6cccc(Br)c6F)c5cc4O3)CC2C1` (stereo partly shown) were, in that order, 21.7 nM and 14.3 nM.
The like results for `CN1CCN(C[C@H]2COc3cc4ncnc(Nc5cccc(Br)c5F)c4cc3O2)CCC1C(F)(F)F` (stereo partly shown) were, in that order, 54 nM and 36.9 nM.
On the same counts, the results for `CN1CCN(C[C@H]2COc3cc4ncnc(Nc5cccc(Br)c5F)c4cc3O2)CC(F)(F)C1` are 140 nM and 50.6 nM.
On to `CN1CCC12CN(C[C@H]1COc3cc4ncnc(Nc5cccc(Br)c5F)c4cc3O1)C2`, for which the IC50 in data set [1] came out at 9.4 nM; in data set [2], 7 nM.
The like results for `CN1CC2(C1)CN(C[C@H]1COc3cc4ncnc(Nc5cccc(Br)c5F)c4cc3O1)C2` were, in that order, 10.1 nM and 5.9 nM.
In the case of `C#Cc1cccc(Nc2ncnc3cc4c(cc23)OCCO4)c1` [JGK005], in data set [3], the “Brain Penetration (% of plasma)” value is 64.8 % of plasma and the “Kpuu (Avg)” value was determined as 0.491.
The like results for `Fc1c(Cl)cccc1Nc1ncnc2cc3c(cc12)OCCO3` [JGK010] were, in that order, 106.4 % of plasma and 1.045.
For the compound `Fc1cccc(Nc2ncnc3cc4c(cc23)OCCO4)c1F` [JGK028], in data set [3], the “Brain Penetration (% of plasma)” value is recorded as 106.2 % of plasma and the “Kpuu (Avg)” value is recorded as 1.037.
On the same counts, the results for `C#Cc1cccc(Nc2ncnc3cc4c(cc23)OCCO4)c1F` [JGK038] are 84.3 % of plasma and 0.575.
The like results for `Fc1c(I)cccc1Nc1ncnc2cc3c(cc12)OCCO3` [JGK042] were, in that order, 167.6 % of plasma and 1.033.
